These are literature values, as cited in patent publication US12396980B2, “Melatonin for preventing and treating radiation cystitis” (RepoCeuticals A/S, priority 2015, dated 2025).

One data set deals with radiation cystitis. The settings on record: human patients.
A further data set deals with rat urinary bladder. The conditions noted are these: intraperitoneal.
The test system of the next data set is lymphocytes. The settings on record: prior oral dosage; human beings.

As for `C[S+](C)[O-]` [DMSO, Dimethyl sulfoxide], the “therapeutic effect on radiation cystitis” value in the data set on radiation cystitis is given as “some therapeutic effect”.
As for `COc1ccc2[nH]cc(CCNC(C)=O)c2c1` [melatonin, /V-acetyl-5-methoxytryptamine], the “protective effect against radiation-induced oxidative changes to the rat urinary bladder” value with rat urinary bladder was “protective effect”. Besides, in the data set on lymphocytes, the “protective effect on the damage caused by subsequent ex vivo radiation exposure of lymphocytes” value was “protective effect”.
As for `COC1=C(OC)C(=O)C(C/C=C(\C)CC/C=C(\C)CC/C=C(\C)CC/C=C(\C)CC/C=C(\C)CC/C=C(\C)CC/C=C(\C)CC/C=C(\C)CC/C=C(\C)CCC=C(C)C)=C(C)C1=O` [coenzyme Q10], the water solubility entry is “almost water-insoluble”.
